# Experimental data published in patent publication EP3959993B1, “METHOD FOR SOLVENT FREE PRODUCTION OF AROMA CONCENTRATES” (Symrise AG, priority 2020, dated 2022).
# Legend:
# [1] = Second oil phase obtained by adding NaCl to the water phase (Example 4); assay type: physicochemical; details: after separating oil phases I and II
# Description: Cross linked polystyrene was used as adsorbent material. The volume flux for loading the adsorbent was 300 ml/min.
# The adsorbent was heated to 150 °C, the temperature of the applied water steam was 160 °C.
# The water steam flux was 10 g/min and was applied for 100 min.
# The oil and water phases were separated.
# A second oil phase was separated and was collected.
# [2] = Influence of the amount of NaCl on the distribution between oil phase and water phase (Example 5); assay type: physicochemical
Compound,Loss in the water phase [1],Distribution in [%] between oil phase and water phase after condensation: Oil phase ([2]; NaCl 0%) [%],Distribution in [%] between oil phase and water phase after condensation: Water phase ([2]; NaCl 0%) [%],Distribution in [%] between oil phase and water phase after condensation: Oil phase ([2]; NaCl 27.8 %) [%],Distribution in [%] between oil phase and water phase after condensation: Water phase ([2]; NaCl 27.8 %) [%],Distribution in [%] between oil phase and water phase after condensation: Oil phase ([2]; NaCl 41.67%) [%],Distribution in [%] between oil phase and water phase after condensation: Water phase ([2]; NaCl 41.67%) [%],Distribution in [%] between oil phase and water phase after condensation: Oil phase ([2]; NaCl 55.56 %) [%],Distribution in [%] between oil phase and water phase after condensation: Water phase ([2]; NaCl 55.56 %) [%],Distribution in [%] between oil phase and water phase after condensation: Oil phase ([2]; NaCl 69.44 %) [%],Distribution in [%] between oil phase and water phase after condensation: Water phase ([2]; NaCl 69.44 %) [%],Distribution in [%] between oil phase and water phase after condensation: Oil phase ([2]; NaCl 83.33 %) [%],Distribution in [%] between oil phase and water phase after condensation: Water phase ([2]; NaCl 83.33 %) [%]
CCCCCO [pentanol],"15,4%",29.5,70.5,56.8,43.2,67.2,32.8,73.8,26.2,79.8,20.2,84.6,15.4
CC(=O)OCCc1ccccc1 [phenylethyl acetate],"0,0%",70.8,29.2,96.9,3.1,98,2,100,0,100,0,100,0
CCC/C=C/C=O [trans-2-hexenal],"12,5%",35.5,64.5,63.6,36.4,71.5,28.5,76.8,23.2,83.3,16.7,87.5,12.5

# The next lines start with the values.
Loss in the water phase [1],Distribution in [%] between oil phase and water phase after condensation: Oil phase ([2]; NaCl 0%) [%],Distribution in [%] between oil phase and water phase after condensation: Water phase ([2]; NaCl 0%) [%],Distribution in [%] between oil phase and water phase after condensation: Oil phase ([2]; NaCl 27.8 %) [%],Distribution in [%] between oil phase and water phase after condensation: Water phase ([2]; NaCl 27.8 %) [%],Distribution in [%] between oil phase and water phase after condensation: Oil phase ([2]; NaCl 41.67%) [%],Distribution in [%] between oil phase and water phase after condensation: Water phase ([2]; NaCl 41.67%) [%],Distribution in [%] between oil phase and water phase after condensation: Oil phase ([2]; NaCl 55.56 %) [%],Distribution in [%] between oil phase and water phase after condensation: Water phase ([2]; NaCl 55.56 %) [%],Distribution in [%] between oil phase and water phase after condensation: Oil phase ([2]; NaCl 69.44 %) [%],Distribution in [%] between oil phase and water phase after condensation: Water phase ([2]; NaCl 69.44 %) [%],Distribution in [%] between oil phase and water phase after condensation: Oil phase ([2]; NaCl 83.33 %) [%],Distribution in [%] between oil phase and water phase after condensation: Water phase ([2]; NaCl 83.33 %) [%],Compound
"0,0%",93.4,6.6,99.4,0.6,100,0,100,0,100,0,100,0,CCCCCCOC(C)=O [hexyl acetate]
"0,0%",91.3,8.7,100,0,100,0,100,0,100,0,100,0,CCCCCCCCO [octanol]
